A short description of assay [1]: Cholesterol, TG, NEFA and glycerol in serum and liver. On the set-up: liver NEFA, Mean 2 (group mean) / Plasma VLDL cholesterol in db/db mice (VLDL-C) / Plasma VLDL cholesterol in db/db mice, group mean / TC in liver_CT2KO (total cholesterol in the liver of CRTC2-KO) / TC in liver_WT (total cholesterol in the liver) / TC in liver_WT, mean / TC in liver_WT, Mean Diff. VEH vs. drug / TC in liver_CRTC2KO, mean / TC in liver_CRTC2KO, Mean Diff. VEH vs. drug: unit not given here. The following applies: for Plasma total cholesterol, Mean 1 (drug group): N 6. The format is in vivo, mouse. Here is the method:
Serum total cholesterol (TC), LDL cholesterol (LDL-C), and HDL cholesterol (HDL-C) levels were detected using commercial kits (Beihua, China), and serum VLDL protein was determined by ELISA (Jiancheng, China).
The plasma TG and NEFA levels were determined using corresponding kits from Beihua (China) and WAKO (Japan), respectively. The TG levels of liver and WAT were tested by TG kit (Applygene, China). The NEFA in the liver and WAT were extracted by chloroform–methanol and then subjected to NEFA assay (WAKO).

Assay [2] deals with tissue protein levels. In words: Immunoblotting of tissue proteins in treated mice. The format is in vivo, mouse. The following applies: for Relative LXRa/ACTIN, Mean Diff. (VEH vs. treated) / Relative LXRa/ACTIN, Mean 2 (group mean) / Relative LXRa/ACTIN: Figure 7h; for Relative LXRa/ACTIN, Mean 2 (group mean): N2 = 4; for Relative LXRa/ACTIN: single replicates. Here is the method: (§1) Immunoblotting and immunoprecipitation assays were performed as previously described, with antibodies recognizing CREB, Ser133-P-CREB, AMPK, P-AMPK, AKT, P-AKT (Cell Signaling), PGC-1α (Merck), CRTC2 (Calbiochem), PCK1 (Santa Cruz), SREBP1 (Santa Cruz), SREBP2 (BD), HA (Convance), LXRα (Santa Cruz), FLAG (Sigma), GST (Covance), HIS (Abmart), GAPDH (AOGMA), α-TUBULIN (Abmart), β-ACTIN (Abmart), and other antibodies (Supplementary Table 3). For immunostaining assays, primary cultured hepatocytes seeded on coverslips were fixed with 4% paraformaldehyde for 20 min, permeabilized with 0.3% Triton X-100 in PBS, and then blocked by 5% normal goat serum and 0.3% Triton X-100 in PBS, followed by incubation with anti-CREB (1:1000), anti-P-CREB (1:1000), or anti-HA (1:3000) antibodies for 1 h at 4 °C. Slides were then washed, and after washing, slides were incubated with fluorochrome-conjugated secondary antibodies (Invitrogen). Slides were then washed and mounted with Vectashield mounting media containing 4, 6-diamidino-2-phenylindole (DAPI).
For orientation: Immunoblotting shows a protein as a band on a membrane.

In assay [3] the test system is AMPK. In words: Phospho-AMPK immunoblot in primary hepatocytes. Format: cell-based, mouse. Conditions: for relative p-AMPK protein, mean: N=3 (0 μM = 1); for relative p-AMPK protein: Supp. fig.3e, individual replicates. As for the experimental part:
as §1
1 Supplementary Figure 3. APC inhibits gluconeogenesis independent of CREB-phosphorylation,
2 cell toxin or AMPK activation. […]
20 e) Phosphate-AMPK level in primary hepatocytes incubated with APC or metformin (MET) at
21 indicated concentrations (0–200 μM) for 30 minutes (top). Relative P-AMPK normalized by AMPK is […]

Assay [4] has as its target T1, CREB-CRTC2 interaction (Homo sapiens, UniProt P16220).
T1 construct: expressed in transfected cells; host or cells: HEK293T
In words: CREB–CRTC2 mammalian two-hybrid assay (GAL4-Luc reporter). The format is cell-based.

Assay [5] has as its target T2, HIS-CREB protein (Homo sapiens, UniProt P16220).
T2 construct: made in house
In words: Isothermal titration calorimetry. The format is binding. On the technique in general: ITC needs no label: the signal is the heat of the interaction.
Protocol: Isothermal titration calorimetry was performed using a MicroCal iTC200 calorimeter (Freiburg, Germany). The purified HIS-CREB protein and APC were diluted in buffer (PBS with 500 mM NaCl and 10% glycine, pH 8.0). APC solution was titrated by injection of HIS-CREB. The originally released heat from molecules binding was recorded and analyzed by Origin9 software (Origin Lab) supplied with the instrument.

The mark [6] stands for this setting: liver, CRTC2KO mice, drug minus VEH.
Setting [7] is: liver, CRTC2KO mice, group mean, N=4.
Setting [8] is: liver, WT mice, group mean, N=4.
[9] abbreviates: 200 μM (first of two lines printed 200).
[10] abbreviates: 200 μM (second of two lines printed 200).

Several values for one entry are separate records, joined by “and”; a condition that tells them apart may be missing. Equal values may be shown once.

T1 sequence (P16220 whole entry): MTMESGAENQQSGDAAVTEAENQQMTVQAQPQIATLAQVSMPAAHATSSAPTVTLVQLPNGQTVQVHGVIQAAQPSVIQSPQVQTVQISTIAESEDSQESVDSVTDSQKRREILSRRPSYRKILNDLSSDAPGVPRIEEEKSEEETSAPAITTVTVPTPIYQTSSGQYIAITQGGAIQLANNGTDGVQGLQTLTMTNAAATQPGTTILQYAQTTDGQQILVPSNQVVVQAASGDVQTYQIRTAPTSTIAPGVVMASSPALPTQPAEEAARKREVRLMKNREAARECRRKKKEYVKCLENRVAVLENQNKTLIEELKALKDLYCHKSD
T2 sequence (P16220 whole entry): as above

Take `CN(C)C(=N)NC(=N)N` [MET]: the “Plasma total cholesterol, Mean Diff. vs. VEH” value in assay [1] (Figure 6h, CRTC2KO mice) was 28.04 mg/dL; in assay [1] (Figure 6h, WT mice), -63.12 mg/dL. Also, the “Plasma total cholesterol, Mean 1 (drug group)” value turned out to be 246.8 mg/dL in assay [1] (Figure 6h, CRTC2KO mice, group mean) and 215.4 mg/dL in assay [1] (Figure 6h, WT mice, group mean). Besides, the “TC in plasma_CRTC2KO (plasma total cholesterol)” value in assay [1] (Figure 6h, CRTC2KO mice, individual mice) was 232.014 mg/dL and 251.349 mg/dL and 216.160 mg/dL and 260.242 mg/dL and 252.895 mg/dL and 268.363 mg/dL. In assay [1] (Figure 6h, WT mice, individual mice), the “TC in plasma_WT (plasma total cholesterol)” value is 184.451 mg/dL and 247.868 mg/dL and 232.401 mg/dL and 156.610 mg/dL and 233.948 mg/dL and 237.041 mg/dL. For the same molecule, the “TC in liver_CRTC2KO, Mean Diff. VEH vs. drug” value in assay [1] (liver, CRTC2-KO mice, VEH minus drug) is recorded as -4.203. Further, in assay [1] (liver, CRTC2-KO mice, drug minus VEH), the “TG in liver_CT2KO, Mean Diff. vs. VEH” value worked out at 5.139 mg/g protein. Further, in assay [1] (liver, CRTC2-KO mice, group mean (Mean 2), N=6), the “TC in liver_CRTC2KO, mean” value stood at 55.56. Besides, the “TG in liver_CT2KO, mean” value in assay [1] (liver, CRTC2-KO mice, group mean, N=6) is 20.79 mg/g protein. Also, in assay [1] (liver, CRTC2-KO mice, individual animals, Supp.fig.5c), the “TG in liver_CT2KO” value was 21.7349 mg/g protein and 16.8626 mg/g protein and 22.9286 mg/g protein and 13.5919 mg/g protein and 26.3275 mg/g protein and 23.2939 mg/g protein. The “TC in liver_WT, Mean Diff. VEH vs. drug” value in assay [1] (liver, WT mice, VEH minus drug) is 4.549. Also, in assay [1] (liver, WT mice, drug minus VEH), the “TG in liver_WT, Mean Diff. vs. VEH” value is -8.336 mg/g protein. Besides, in assay [1] (liver, WT mice, group mean (Mean 2), N=6), the “TC in liver_WT, mean” value worked out at 55.81. In assay [1] (liver, WT mice, group mean, N=6), the “TG in liver_WT, mean” value was determined as 11.62 mg/g protein. Besides, in assay [1] (liver, WT mice, individual animals, Supp.fig.5c), the “TG in liver_WT” value was 22.699 mg/g protein and 6.6923 mg/g protein and 14.0154 mg/g protein and 7.7587 mg/g protein and 8.152 mg/g protein and 10.4144 mg/g protein. In addition, the figures for the “Relative LXRa/ACTIN, Mean Diff. (VEH vs. treated)” value in assay [2] (CRTC2KO) and in assay [2] (WT) were 0.07206 and 0.1998, respectively. Moreover, the entries for the “Relative LXRa/ACTIN, Mean 2 (group mean)” value in assay [2] (CRTC2KO) and in assay [2] (WT) were 0.7321 and 0.6958, respectively. In addition, the “Relative LXRa/ACTIN” value in assay [2] (CT2KO) is 0.7043 and 0.6782 and 0.684 and 0.8619; in assay [2] (WT) it was 0.7209 and 0.7206 and 0.6711 and 0.6705. Also, in assay [2] (setting [6]), the “SREBP1/ACT IN CT2KO, Mean Diff. vs. VEH” value was -0.1882. Moreover, the “SREBP2/ACT IN CT2KO, Mean Diff. vs. VEH” value in assay [2] (setting [6]) is listed as -0.07501. Also, the “SREBP1/ACT IN CT2KO, mean” value in assay [2] (setting [7]) stood at 0.4991. Also, in assay [2] (setting [7]), the “SREBP2/ACT IN CT2KO, mean” value is given as 0.6794. In addition, the “SREBP1/ACT IN CT2KO (related SREBP1 protein levels in CRTC2KO liver)” value in assay [2] (liver, CRTC2KO mice, individual replicates, Supp.fig.5a left) was 0.5276 and 0.4764 and 0.5154 and 0.4771. In addition, in assay [2] (liver, CRTC2KO mice, individual replicates, Supp.fig.5a right), the “SREBP2/ACT IN CT2KO (related SREBP2 protein levels in CRTC2KO liver)” value was 0.7097 and 0.717 and 0.6322 and 0.6586. Further, the “SREBP1/ACT IN WT, Mean Diff. vs. VEH” value in assay [2] (liver, WT mice, drug minus VEH) is -0.1949. In addition, the “SREBP2/ACT IN WT, Mean Diff. vs. VEH” value in assay [2] (liver, WT mice, drug minus VEH) is -0.2245. Also, the “SREBP1/ACT IN WT, mean” value in assay [2] (setting [8]) came to 0.7683. Besides, the “SREBP2/ACT IN WT, mean” value in assay [2] (setting [8]) was 0.8001. In addition, the “SREBP1/ACT IN WT (related SREBP1 protein levels in liver)” value in assay [2] (liver, WT mice, individual replicates, Supp.fig.5a left) was 0.8628 and 0.72 and 0.7576 and 0.7329. The “SREBP2/ACT IN WT (related SREBP2 protein levels in liver)” value in assay [2] (liver, WT mice, individual replicates, Supp.fig.5a right) was 0.85 and 0.793 and 0.7497 and 0.8079. Further, the “relative p-AMPK protein, mean” value in assay [3] (5 μM) came to 1.096; in assay [3] (10 μM), 1.224; in assay [3] (100 μM) it was 1.394; in assay [3] (setting [9]), 1.978; in assay [3] (setting [10]), 2.005. The “relative p-AMPK protein” value in assay [3] (5 μM) is 1.169 (2×) and 0.9483; in assay [3] (10 μM), 1.256 and 1.249 and 1.166; in assay [3] (100 μM), 1.432 and 1.326 and 1.423; in assay [3] (setting [9]), 2.049 and 1.941 and 1.943; in assay [3] (setting [10]), 1.966 and 1.951 and 2.098. Moreover, the “relative p-AMPK protein, column mean” value in assay [3] (mean over all concentrations, 0 μM included) is reported as 1.449.

Take `CCOC(=O)/C=C/c1ccc(O)cc1` [P4, (E)-p-hydroxycinnamic acid ethyl ester]: the “reporter activity of CREB–CRTC2 two-hybrid assay” value in assay [4] was “nor decreased CREB/CRTC2 interaction”. In assay [5], the “direct binding with HIS-CREB proteins (ITC)” value was “neither directly bound with HIS-CREB proteins”.
